Laboratory results from patent US11413278B2, “Compounds and methods for promoting stress resistance” (priority 2015, dated 2022).
Read-outs that look alike come from different tables or passages of the source.

What was measured:
WI-38 cells [1] = assay: Propidium iodide (PI) cell-death imaging upon H2O2 stress; assay type: cell-based, human; settings: for Assay 7: H2O2-resistant, at 10 uM, validated by propidium iodide (PI) cell-death imaging: w/H2O2, 3 hrs/4 hrs/5 hrs, YES/NO; for cytotoxicity at 10 µM: Homo sapiens, WI-38
WI-38 cells [2] = assay: MMS resistance assay; assay type: cell-based, human; settings: for fold induction at 10 µM: Homo sapiens, 12 h, normalized ATP measurement; for Assay 3: MMS-resistant / Assay 5: Triple resistant: YES/NO; for Assay 3: MMS-resistant: * indicates partial; for Assay 5: Triple resistant: H2O2, cadmium and MMS; for Triple resistant: H2O2, CdCl2 and MMS
Summary of the method: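 Resistance to CdCl2 or MMS stress (12 h exposure) was scored in WI-38 fibroblasts pretreated with compound at 0.25–20 μM final, five doses, technical triplicates. MMS plates had compound added 24 h before MMS, after a shift to serum-free DMEM+2% BSA. Significance came from a global variance t-test over two independent runs.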

mTOR = mTOR inhibition (RPS6 phosphorylation status), In-Cell Western; assay type: cell-based, human
Summary of the method: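 Read-out is In-Cell Western near-infrared imaging of phospho-RPS6 (Ser-235/236) against total RPS6, using overnight 4° C primary staining and DyLight 680/800 secondaries. Compounds were given to WI-38 cells for 24 hrs at three doses: 5, 10 and 20 μM.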

WI-38 cells [3] = assay: Long-term effects on cell viability (5 days, ATP; morphology, PI imaging); assay type: cell-based; settings: 10 μM; for O = Potential toxicity / Q = Potential toxicity: human, 5 days; for Luminescence signal for ATP measurement, day-1 Average / Luminescence signal for ATP measurement, day-2 Average / Luminescence signal for ATP measurement, day-3 Average / Luminescence signal for ATP measurement, day-4 Average / Luminescence signal for ATP measurement, day-5 Average / viability at 10 µM: Batch 1; for Luminescence signal for ATP measurement, day-1 Average / Luminescence signal for ATP measurement, day-2 Average / Luminescence signal for ATP measurement, day-3 Average / Luminescence signal for ATP measurement, day-4 Average / Luminescence signal for ATP measurement, day-5 Average: n = 6, day-0 luminescence = 320956 ± 24708; for viability at 10 µM: Homo sapiens, WI-38, 120 h, DMSO ctrl = 100.0%, read-out: ATP luminescence by day-5 normalized; for Luminescence signal for ATP measurement, day-5 Average / viability at 10 µM: day-5;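 for Luminescence signal for ATP measurement, day-2 Average: compounds at 10 µM with ATP read daily over 5 days of treatment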;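 for Luminescence signal for ATP measurement, day-3 Average: compounds at 10 µM with ATP read daily over 5 days of treatment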;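 for Luminescence signal for ATP measurement, day-4 Average: compounds at 10 µM with ATP read daily over 5 days of treatment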;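 for Luminescence signal for ATP measurement, day-5 Average: compounds at 10 µM with ATP read daily over 5 days of treatment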
WI-38 cells [4] = settings: no H2O2 stress, 10 uM; negative control 0.41% ± 0.23%
Method: WI-38 cells were seeded on 384-well plates for 24 hrs and then incubated with small molecules for 24 hrs. […] Images were collected on an INCell Analyzer 2000 (GE) and analyzed with the Developer software.

WI-38 cells [5] = settings: for No H2O2 stress treatment, at 10 uM (fold change): normalized ATP measurement; for Assay 1: H2O2-resistant: YES/NO, if NO, possibly due to repeated freezing/thawing of stocks
[6] = H2O2 3 hrs, 10 uM, n = 6, negative control 5.44% ± 0.79%, read-out: Percentage of propidium iodide-positive dead cells (under H2O2 stress treatment), 3 hrs
[7] = H2O2 4 hrs, 10 uM, n = 6, negative control 16.81% ± 1.42%, read-out: Percentage of propidium iodide-positive dead cells (under H2O2 stress treatment), 4 hrs
[8] = pre-treatment at 10 uM, 3.5 hours of H2O2, DMSO control 27.4% ± 6.5%, */**/*** = reduced by one/two/three standard deviations, read-out: Percentage of propidium iodide-positive dead cells (under H2O2 stress treatment), at 10 uM
[9] = Exp. 1, WI-38 cells, read-out: Exp. 1, under MMS stress treatment, at 10 uM (fold change)
[10] = Exp. 2, WI-38 cells, read-out: Exp. 2, under MMS stress treatment, at 10 uM (fold change)
[11] = score in summary of 38 core set hits
[12] = WI-38 cells, 10 μM, (*) = compromised ability to protect cells from H2O2, could be due to stability issue
[13] = asterisks indicate the loss of the ability to protect cells from H2O2 over time
[14] = derived from dose response curves, 0.6-20 uM, H2O2-resistance of WI-38 cells
[15] = read-out: Est. ED50, dose response 0.6-20 μM, H2O2-resistance

Compound	Assay 7: H2O2-resistant, at 10 uM, validated by propidium iodide (PI) cell-death imaging (WI-38 cells [1]; 10 uM)	cytotoxicity at 10 µM (WI-38 cells [1]; [6]) [%]	cytotoxicity at 10 µM (WI-38 cells [1]; [8]) [%]	fold induction at 10 µM (WI-38 cells [2]; [9])	fold induction at 10 µM (WI-38 cells [2]; [10])	B = MMS resistant (WI-38 cells [2]; [11])	B = MMS resistant (WI-38 cells [2]; summary score)	D = Triple resistant (WI-38 cells [2]; summary score)	G = mTOR down-regulation (mTOR; 2-point score)	G = mTOR down-regulation (mTOR; summary score)	O = Potential toxicity (WI-38 cells [3])	Q = Potential toxicity (WI-38 cells [3])	Percentage of propidium iodide-positive dead cells (no H2O2 stress treatment), at 10 uM (WI-38 cells [4])	H2O2-resistant (WI-38 cells [5]; [12])	No H2O2 stress treatment, at 10 uM (fold change) (WI-38 cells [5]; WI-38 cells)	H2O2-resistant (WI-38 cells [5]; [13])	EC50 (WI-38 cells [5]; [15]) [µM]	Luminescence signal for ATP measurement, day-1 Average (WI-38 cells [3])	Luminescence signal for ATP measurement, day-2 Average (WI-38 cells [3])	Luminescence signal for ATP measurement, day-3 Average (WI-38 cells [3])	other results
O=C(/C(=C/c1ccc(Cl)cc1)c1nc2ccccc2[nH]1)c1ccccc1 [Gr-4D]	YES	1.58	19.8	1.72	1.33	0	1	2	0	0	0	0	0.42% ± 0.15%,	YES	1.11	YES	8.9				cytotoxicity at 10 µM (WI-38 cells [1]; [7]): 7.44%; Assay 3: MMS-resistant (WI-38 cells [2]): YES; Assay 5: Triple resistant (WI-38 cells [2]): YES; Assay 1: H2O2-resistant (WI-38 cells [5]): YES; EC50 (WI-38 cells [5]; [14]): 10.6 µM
CCc1ccc(Oc2nc3ccccn3c(=O)c2/C=C(\C#N)C(=O)NC2CCCCC2)cc1 [Gr-5A]	YES	1.64	3.7	0.83	1.49	0	0	0	0	0	0	0	0.48% ± 0.20%,	YES	1.14	YES	10.2	527000	728148	837593	cytotoxicity at 10 µM (WI-38 cells [1]; [7]): 8.97%; Luminescence signal for ATP measurement, day-4 Average (WI-38 cells [3]): 1074220; Luminescence signal for ATP measurement, day-5 Average (WI-38 cells [3]): 1082445; viability at 10 µM (WI-38 cells [3]): 105%
CCc1ccc(Oc2nc3ccccn3c(=O)c2/C=C(\C#N)C(=O)NCc2ccco2)cc1 [Gr-5B]	YES	1.18	6.1	1.13	1.36	0	0	0	0	0	0	0	0.45% ± 0.15%,	YES	1.19	YES	14.3	529430	736318	867160	cytotoxicity at 10 µM (WI-38 cells [1]; [7]): 6.19%; Luminescence signal for ATP measurement, day-4 Average (WI-38 cells [3]): 1091073; Luminescence signal for ATP measurement, day-5 Average (WI-38 cells [3]): 1104305; viability at 10 µM (WI-38 cells [3]): 108%; EC50 (WI-38 cells [5]; [14]): 8.7 µM
CNC(=O)/C(C#N)=C/c1c(Oc2ccc(C(C)(C)C)cc2)nc2ccccn2c1=O [Gr-5D]	YES	3.28	6.4			0	1	2	0	0	0	0	0.51% ± 0.18%,	YES (*)	1.14	YES (*)	18.7	498641	763806	920681	Assay 3: MMS-resistant (WI-38 cells [2]): YES; Assay 5: Triple resistant (WI-38 cells [2]): YES; Luminescence signal for ATP measurement, day-4 Average (WI-38 cells [3]): 1052285; Luminescence signal for ATP measurement, day-5 Average (WI-38 cells [3]): 1110868; viability at 10 µM (WI-38 cells [3]): 108%; Assay 1: H2O2-resistant (WI-38 cells [5]): YES
Cc1cc(N)n(-c2ccccc2C(=O)O)n1 [Gr-6A]	YES	4.38	15.6	2.2	7.2	1	1	2	0	0	0	0	0.41% ± 0.17%,	YES	1.10	YES	40.5	581273	717601	804970	MMS-resistant (WI-38 cells [2]): YES; Multiplex resistance to cadmium, MMS and H2O2 (WI-38 cells [2]; 0.25 μM to 20 μM, repurchased molecules): reproducibly conferred multiplex resistance; Triple resistant (WI-38 cells [2]): YES; MMS-resistant (WI-38 cells [2]; WI-38 cells, 10 μM): YES; Triple resistant (WI-38 cells [2]; WI-38 cells, 10 μM): YES; Assay 3: MMS-resistant (WI-38 cells [2]): YES; Assay 5: Triple resistant (WI-38 cells [2]): YES; Luminescence signal for ATP measurement, day-4 Average (WI-38 cells [3]): 1007061; Luminescence signal for ATP measurement, day-5 Average (WI-38 cells [3]): 986943; viability at 10 µM (WI-38 cells [3]): 96.1%; Assay 1: H2O2-resistant (WI-38 cells [5]): YES; EC50 (WI-38 cells [5]; [14]): 13.8 µM
O=C(/C=C/c1cn(-c2ccccc2)nc1-c1cccnc1)c1ccccc1 [Gr-6B]	YES	2.62	2.1	2.12	1.22	0	1	2	0	0	0	0	0.46% ± 0.25%,	YES	1.10	YES	45.1	467756	641901	736245	Assay 3: MMS-resistant (WI-38 cells [2]): YES; Assay 5: Triple resistant (WI-38 cells [2]): YES; Luminescence signal for ATP measurement, day-4 Average (WI-38 cells [3]): 969598; Luminescence signal for ATP measurement, day-5 Average (WI-38 cells [3]): 953988; viability at 10 µM (WI-38 cells [3]): 92.9%; Assay 1: H2O2-resistant (WI-38 cells [5]): YES
